What was measured:
[1] = test system: FRT QXN UGAC cells; assay: Confirmatory dual luciferase assay (firefly/Renilla ratio); format: cell-based, Rat; conditions: for FRT UGAC Dual Luciferase Firefly/Renilla Mean ± SD: 10 μM unless otherwise indicated
Experimental: The basic features of the dual luciferase reporter system have been described previously (Grentzmann G, et al., RNA; 4: 479-486, 1998). […] These constructs were grown in the presence of lead compounds, vehicle control (0.3% DMSO), or positive control (250 μg/mL G418) for 24 hrs and the assay was performed as previously described (Xue X, et al., American journal of respiratory cell and molecular biology; 50: 805-816; 2014).
In this assay, an increase in the luciferase ratio indicates the compounds stimulated read-through of the PTC in the constructs tested. FRT QXN UGAC cells were incubated with compound (0.01 μM to 10 μM), G418 (250 μg/mL) or vehicle control (0.3% DMSO) for 48 hours.

[2] = test system: FRT G542X^HRP cells; assay: Horse radish peroxidase (HRP) CFTR cell surface expression assay, G542X; format: cell-based, Rat; conditions: 48 hours; for FRT G542X HRP RLU Mean ± SE / HRP activity (CFTR cell surface expression) compared to vehicle control: 10 μM
Experimental: (§1) To measure cell surface expression of CFTR, FRT cells expressing the fusion protein of G542X CFTR and HRP were treated with 10 μM of lead compounds for 48 hours at 37° C. and 5% CO2. Holding DMSO concentration at 0.3%, FRT cells were washed 4 times in PBS supplemented with 1 mM MgCl2 and 0.1 mM CaCl2 and then incubated with the HRP substrate (Fisher, #PI-34096, 15 μl/well) at room temperature for 10 minutes. The luminescent HRP signal was analyzed via a Synergy NEO microplate reader (BioTek Instruments).
To obtain an additional readout of CFTR function, the effect of the lead compounds on CFTR cell surface expression was evaluated using the HRP assay. FTR G542X cells were incubated with compound (10 μM), G418 (250 μg/mL) or vehicle control (0.3% DMSO) for 48 hours prior to determination of HRP activity. In this assay, an increase in HRP activity indicates the compounds stimulated read-through of the PTC in the constructs tested.

[3] = test system: α-L-iduronidase; assay: α-L-iduronidase activity assay in MEF cells from homozygous Idua-W402X mice; format: cell-based, Mouse; conditions: 48 hours; escin 0.25 to 160 μM, doxorubicin 5 to 160 μM
Experimental: α-L-iduronidase activity was determined as follows. Cell extracts were obtained from mouse embryonic fibroblast (MEF) cells homozygous for the W402X mutation and immortalized using the SV40 Large T antigen using a lentiviral expression system. α-L-iduronidase activity was determined as described by Wang et al. (Wang, D. et al., 2012; Mol Genet Metab 105: 116-125). Briefly, 4-methyl-umbelliferone iduronide (FMU) was added to the cell lysate as a substrate at low pH (for example, 130 mM sodium formate buffer, pH 3.5). The reaction was incubated for 72 h at 37° C. after which the reaction was quenched by the addition of high pH buffer (for example, glycine-NaOH buffer, pH 10.8). The fluorescence of the cleaved free FMU molecule was immediately measured at 365 nm excitation and 450 nm emission using a fluorometer and the amount of active iduronidase was expressed as nmol FMU released/mg protein/hour.
After 48 hours, cell lysates were obtained and the activity of MEF α-L-iduronidase was determined. Enhancement of PTC read-through by the compounds of the present disclosure was determined by an increase in α-L-iduronidase activity.

[4] = test system: HBE ΔF508/ΔF508 cells; assay: Ussing chamber Isc in primary HBE ΔF508/ΔF508 cells; format: cell-based, Human; conditions: escin 10 μM, VX-809 6 μM; 48 hours
Experimental: Short circuit current (Isc) was measured under voltage clamp conditions as previously described (Rowe S M, et al., J Mol Med (Berl); 89: 1149-1161; 2011). Briefly, primary HBE cells as described herein were seeded on Costar […] permeable supports (5.3×10^5 cells/filter, 6.5 mm diameter; Bethesda, Md.) after coating with fibroblast-conditioned media (Liu X, et al., Am J Pathol; 180: 599-607, 2012). Well-differentiated cells were treated with compounds for 48 hours and Isc measurements were obtained by using an epithelial voltage clamp apparatus in Ussing chambers (Physiologic Instruments). After measuring the baseline Isc, amiloride (100 μM) was added to block the epithelial sodium channel activity followed by the addition of CFTR agonists (20 μM FSK and 10 μM VX-770). CFTRInh-172 (10 μM) was added at the end of experiment to block CFTR-dependent Isc. DMSO (0.1%) and G418 (250 μg/mL) served as vehicle and positive controls, respectively.
Individual assays were performed as described herein.

[5] = test system: FRT Y122X^HRP cells; assay: HRP CFTR expression assay, Y122X; format: cell-based, Rat; conditions: 48 hours; escin 10 μM, VX-809 3 μM
Experimental: as §1
(§2) The effect of the read-through stimulating compounds of the present disclosure in combination with the CFTR corrector VX-809 was further examined in FRT cells with the G542X, Y122X and W1282X mutations. Enhancement of PTC read-through by the compounds of the present disclosure was determined by an increase in CFTR conductance (FIGS. 13A-13C) or an increase in CFTR protein expression at the cell surface (FIGS. 14A-14C). CFTR conductance also indicated the CFTR was functional as a result of the read-through of the PTC.

[6] = test system: FRT W1282X^HRP cells; assay: HRP CFTR expression assay, W1282X; format: cell-based, Rat; conditions: 48 hours; escin 10 μM, VX-809 3 μM
Experimental: as §1, §2

| SMILES | concentration at which dual luciferase activity peaked ([1]; 0.01 μM to 10 μM, 48 hours) | FRT UGAC Dual Luciferase Firefly/Renilla Mean ± SD [1] | FRT G542X HRP RLU Mean ± SE [2] | HRP activity (CFTR cell surface expression) compared to vehicle control [2] | α-L-iduronidase activity as compared to vehicle control [3] | CFTR protein expression at the cell surface ([2]; escin 10 μM, VX-809 3 μM) | forskolin/VX-770 dependent Isc [4] | CFTR protein expression at the cell surface [5] | CFTR protein expression at the cell surface [6] |
| --- | --- | --- | --- | --- | --- | --- | --- | --- | --- |
| COc1cccc2c1C(=O)c1c(O)c3c(c(O)c1C2=O)C[C@@](O)(C(=O)CO)C[C@@H]3O[C@H]1C[C@H](N)[C@H](O)[C@H](C)O1 [Doxorubicin, DOXORUBICIN] | ~1 µM | 1.99 ± 0.007 | 26269 ± 1426 RLU | significantly higher | dose-dependent increase | – | – | – | – |
| CCCOc1ccc2nc(NC(=O)OC)[nH]c2c1 [Oxibendazole, OXIBENDAZOLE] | – | 1.34 ± 0.01 | 28150 ± 908.6 RLU | significantly higher | – | – | – | – | – |
| Cc1ccc(NC(=O)C2(c3ccc4c(c3)OC(F)(F)O4)CC2)nc1-c1cccc(C(=O)O)c1 [VX-809] | – | – | – | – | – | significant stimulatory effects | significant increase | significant stimulatory effects | significant stimulatory effects |
| C[C@@H]1C[C@@H]([C@H](O)CC2CC(=O)NC(=O)C2)C(=O)[C@@H](C)C1 [Cyclohexamide, CYCLOHEXIMIDE] | – | 1.81 ± 0.01 | 38171 ± 1618 RLU | significantly higher | – | – | – | – | – |

— patent US10960018B2, “Methods and compounds for stimulating read-through of premature termination codons” (The UAB Research Foundation, priority 2016, dated 2021)
